In brackets after ≈: the same amount, converted by molar mass.
Legend:
S. aureus (ATCC 29213) = experiment: MIC, serial broth dilution; assay type: cell-based, Staphylococcus aureus; settings: MHB, 18 h, 37° C.
Description: (§1) The peptidomimetics designed in present invention were evaluated as antibacterial therapeutics against a broad range of bacterial strains by broth microdilution method. The antibacterial activity of the peptidomimetics was reported in terms of the minimum inhibitory concentrations (MIC).
(§2) Following bacterial strains were used in this study: S. aureus (ATCC 29213), methicillin resistant S. aureus (ATCC 33591), Staphylococcus epidermidis (ATCC 12228), methicillin resistant Staphylococcus epidermidis(ATCC 51625), Enterococcus faecalis (ATCC 7080), Escherichia coli (ATCC 11775), and Acinetobacter baumannii (ATCC 19606). Antibacterial activity was evaluated using a modified serial broth dilution method in accordance with Clinical Laboratory Standard Institute guidelines [Methods for dilution antimicrobial susceptibility tests for bacteria that grow aerobically-7th ed. Approved standard M7-A7. Clinical and Laboratory Standards Institute, Wayne, Pa., Biochim. Biophys. Acta 1798:1864-1875, 2010.]. Briefly, the inoculums were prepared from mid-log phase bacterial cultures. Peptidomimetics were incubated with bacterial suspension in Muller Hinton broth media (10^5 CFU/mL) in 96 well microtitre plate. The plates were incubated overnight with agitation (200 rpm) at 37° C. After 18 h, absorbance was measured at 630 nm. Cultures without test peptidomimetics were used as positive control. Un-inoculated Mueller Hinton Broth (MHB) was used as negative control. Tests were carried out in duplicate on at least three different days. […] For comparison standard peptide antibiotics vancomycin (VAN) and polymyxin B (PMB) were also assayed under identical conditions (Table 2). […] Further, antibacterial activity of active peptidomimetics 1c and 1d were also evaluated against MRSA in presence of 25% v/v human serum as well as bovine serum.

[1] = system: methicillin resistant S. aureus (ATCC 33591); experiment: MIC, serial broth dilution; assay type: cell-based, Staphylococcus aureus; settings: MHB, 18 h, 37° C.
Description: as §1, §2

[2] = system: Acinetobacter baumannii (ATCC 19606); experiment: MIC, serial broth dilution; assay type: cell-based; settings: MHB, 18 h, 37° C.
Description: as §1, §2

[3] = system: Enterococcus faecalis (ATCC 7080); experiment: MIC, serial broth dilution; assay type: cell-based; settings: MHB, 18 h, 37° C.
Description: as §1, §2

[4] = system: Staphylococcus epidermidis (ATCC 12228); experiment: MIC, serial broth dilution; assay type: cell-based; settings: MHB, 18 h, 37° C.
Description: as §1, §2

[5] = system: methicillin resistant Staphylococcus epidermidis (ATCC 51625); experiment: MIC, serial broth dilution; assay type: cell-based; settings: MHB, 18 h, 37° C.
Description: as §1, §2

[6] = system: Escherichia coli (ATCC 11775); experiment: MIC, serial broth dilution; assay type: cell-based; set-up: MIC E. coli. (ATCC 11775): unit not given here; settings: MHB, 18 h, 37° C.
Description: as §1, §2

[7] = system: human red blood cells (hRBC); experiment: Hemolytic activity; assay type: cell-based; settings: 250 μg/mL, 1 h at 37° C.
Description: Hemolytic activity of the peptidomimetics was evaluated on human red blood cells (hRBC) as described previously with minor modifications [FEBS J, 273:4040-4054, 2006; Biochim Biophys Acta., 1798:1864-1875, 2010]. Briefly, 100 μL of fresh hRBC suspension 4% v/v in NaCl/Pi (35 mM phosphate buffer, 150 mM NaCl, pH 7.2) was placed in a 96-well plate. After incubation of the peptidomimetics (100 μL) in the hRBC suspension for 1 h at 37° C., the plates were centrifuged and supernatant (100 μL) was transferred to fresh 96-well plate. Absorbance was read at 540 nm using ELISA plate reader (Molecular Devices). Percent hemolysis was calculated using the following formula: % hemolysis=100[(A−A0)/(At−A0)]
Where, A represents absorbance of sample wells at 540 nm. Also A0 and At represents 0% and 100% hemolysis determined in NaCl/Pi and 1% Triton X-100, respectively (Table 2). […] Peptidomimetics 1e and 1f caused 31% and 30% hemolysis at 250 μg/mL. Peptidomimetics 2d, 2e and 2f caused significant hemolysis with 83%, 96% and 88% damage to hRBCs at […] respectively.

MRSA = experiment: Membrane depolarization with DiSC3(5) dye; assay type: cell-based, Staphylococcus aureus; settings: up to the highest concentration tested
Description: For determination of membrane depolarizing ability of designed peptidomimetics, a membrane potential sensitive dye DiSC3(5) was used as described previously with minor modifications [Org Biomol. Chem. 10: 8326-8335, 2012; J. Am. Chem. Soc., 132: 18417-18428, 2010.]. Briefly, overnight grown MRSA was sub cultured into MHB for 2-3 h at 37° C. to obtain mid-log phase cultures. The cells were centrifuged at 4000 rpm for 10 min at 25° C., washed, and re-suspended into respiration buffer (5 mM HEPES, 20 mM glucose, pH 7.4) to obtain a diluted suspension of OD600˜0.05. Then DiSC3(5) [0.18 μM in DMSO], was added to 500 μL aliquotes of the re-suspended cells and allowed to stabilize for 1 h. Baseline fluorescence was acquired using a Edinburg F900 spectrofluorometer by excitation at 622 nm and emission at 670 nm in a 1 cm path length cuvette. Bandwidth of 5 nm was employed for excitation and emission. Subsequently, increasing concentrations of test peptidomimetics were added to the stabilized cells and the increase of fluorescence on account of the de-quenching of DiSC3(5) dye was measured after every 2 min to obtain the maximal depolarization. Increase in relative fluorescence unit (RFU) was plotted against increasing concentrations of different peptidomimetics or PMB. […] The increase in fluorescence for lipid tagged peptidomimetics was concentration dependent up to 9.9 μg/mL and henceforth, got saturated resulting into plateau like dose response curves. The experiment was repeated twice on two consecutive days and produced similar results.

all the tested strains = experiment: Antibacterial activity; assay type: cell-based; settings: series 2
Description: as §2

S. aureus (ATCC 33591) = experiment: Resistance development study, serial passage at sub MIC; assay type: cell-based, Staphylococcus aureus; settings: 17 serial passages at sub MIC
Description: FIG. 5: Illustration of resistance development study in S. aureus (ATCC 33591) after 17 serial passages with sub MIC of 1c/1d or antibiotic treatment. The fold change in MIC is the ratio of the MIC after 17 passages relative to that MIC observed before first passage.
To determine potential of active peptidomimetics against resistance development, in vitro serial passage method at sub inhibitory concentration was done. Briefly, bacterial suspension (100 μL) from duplicate wells at the concentration of sub-MIC was used to inoculate fresh culture. The culture was grown to obtain approximately 10^5 CFU/mL for the next experiment. These bacterial suspensions were then incubated with desired concentration of antibacterial agents for 18 h to determine new MIC. The same sub culturing protocol was used for next 16 passages and MIC was determined using OD630 nm as described previously in the text [Chem. Biol., 20:1286-1295, 2013.]

Structure (SMILES)	MIC S. aureus (ATCC 29213) (S. aureus (ATCC 29213)) [µg/mL]	MIC MRSA (ATCC 33591) [1] [µg/mL]	MIC A. baumannii (ATCC 19606) [2] [µg/mL]	MIC E. facaelis (ATCC 7080) [3] [µg/mL]	MIC S. epidermidis (ATCC 12228) [4] [µg/mL]	MIC MRSE (ATCC 51625) [5] [µg/mL]	MIC E. coli. (ATCC 11775) [6]	% H, percentage hemolysis of human RBCs [7] [%]	change in relative fluorescence unit (RFU), membrane depolarization (MRSA)	antibacterial activity (all the tested strains)	increase in MIC after 17 passages (S. aureus (ATCC 33591)) [fold]
CCCCCCCCCCCC(=O)NCCCN(CCCCN(CCCN)C(=O)C(N)Cc1c[nH]c2ccccc12)C(=O)C(N)Cc1c[nH]c2ccccc12 (centres unmarked) [2e]	0.0008 (≈ 0.00106 µM)	1.7 (≈ 2.25 µM)	0.1136 (≈ 0.15 µM)	0.0071 (≈ 0.00938 µM)	0.8 (≈ 1.06 µM)	0.0017 (≈ 0.00225 µM)	28.4	96	significant changes in RFU	–	–
NCCCN(CCCCN(CCCNC(=O)Cc1ccc(C(F)(F)F)cc1)C(=O)C(N)Cc1c[nH]c2ccccc12)C(=O)C(N)Cc1c[nH]c2ccccc12 (centres unmarked) [2c]	0.0142 (≈ 0.0187 µM)	28.4 (≈ 37.3 µM)	0.1136 (≈ 0.149 µM)	–	7.1 (≈ 9.33 µM)	0.0142 (≈ 0.0187 µM)	113.6	1	only marginal changes in RFU	moderate activity	–
CCCCCC=CCC=CCCCCCCCC(=O)NC(Cc1c[nH]c2ccccc12)C(=O)NC(Cc1c[nH]c2ccccc12)C(=O)NCCCNCCCCNCCCN (centres unmarked) [1f]	0.0071 (≈ 0.00848 µM)	3.5 (≈ 4.18 µM)	–	0.0284 (≈ 0.0339 µM)	1.7 (≈ 2.03 µM)	0.0071 (≈ 0.00848 µM)	28.4	30	significant changes in RFU	–	–
NCCCN(CCCCN(CCCN)C(=O)C(N)Cc1c[nH]c2ccccc12)C(=O)C(N)Cc1c[nH]c2ccccc12 (centres unmarked) [2a]	>0.4544	>227.2	–	–	>454.4	0.2272 (≈ 0.395 µM)	>454.4	0	only minor increase	poor activity	–
CCCCCCCCCC(=O)NCCCN(CCCCN(CCCN)C(=O)C(N)Cc1c[nH]c2ccccc12)C(=O)C(N)Cc1c[nH]c2ccccc12 (centres unmarked) [2d]	0.0008 (≈ 0.0011 µM)	1.7 (≈ 2.33 µM)	0.1136 (≈ 0.156 µM)	0.0284 (≈ 0.039 µM)	0.8 (≈ 1.1 µM)	0.0017 (≈ 0.00233 µM)	28.4	83	intermediate changes in fluorescence intensity	–	–
CCCCCC=CCC=CCCCCCCCC(=O)NCCCN(CCCCN(CCCN)C(=O)C(N)Cc1c[nH]c2ccccc12)C(=O)C(N)Cc1c[nH]c2ccccc12 (centres unmarked) [2f]	0.0008 (≈ 0.000956 µM)	3.5 (≈ 4.18 µM)	0.0568 (≈ 0.0678 µM)	0.0142 (≈ 0.017 µM)	0.8 (≈ 0.956 µM)	0.0017 (≈ 0.00203 µM)	28.4	88	significant changes in RFU	–	–
O=C(O)c1cn(C2CC2)c2cc(N3CCNCC3)c(F)cc2c1=O [ciprofloxacin, reference compound]	–	–	–	–	–	–	–	–	–	–	256
NCCCNCCCCNCCCNC(=O)C(Cc1c[nH]c2ccccc12)NC(=O)C(Cc1c[nH]c2ccccc12)NC(=O)C=Cc1ccc(O)c(O)c1 (centres unmarked) [1b]	0.0035 (≈ 0.00475 µM)	7.1 (≈ 9.63 µM)	–	0.1136 (≈ 0.154 µM)	3.5 (≈ 4.75 µM)	0.0071 (≈ 0.00963 µM)	14.2	16	–	–	–
NCCCN(CCCCN(CCCNC(=O)C=Cc1ccc(O)c(O)c1)C(=O)C(N)Cc1c[nH]c2ccccc12)C(=O)C(N)Cc1c[nH]c2ccccc12 (centres unmarked) [2b]	>0.4544	454.4 (≈ 617 µM)	–	–	–	–	>454.4	5	–	poor activity	–
CCCCCCCCCCCC(=O)NC(Cc1c[nH]c2ccccc12)C(=O)NC(Cc1c[nH]c2ccccc12)C(=O)NCCCNCCCCNCCCN (centres unmarked) [1e]	0.0017 (≈ 0.00225 µM)	3.5 (≈ 4.62 µM)	0.0568 (≈ 0.075 µM)	0.0071 (≈ 0.00938 µM)	1.7 (≈ 2.25 µM)	0.0017 (≈ 0.00225 µM)	14.2	31	significant changes in RFU	–	–

Reference: patent US9738684B2, “N-terminally modified linear and branched polyamine conjugated peptidomimetics as antimicrobials agents” (COUNCIL OF SCIENTIFIC & INDUSTRIAL RESEARCH, priority 2015, dated 2017)
